This passage reports IC50 results from patent US20260124222A1, “ISOTHIAZOLYLCARBOXAMIDE COMPOUNDS AND THEIR USE IN THERAPY” (HOTSPOT THERAPEUTICS, INC., priority 2022, published 2026).

Molecules are shown by their SMILES.

The term IC50 denotes the concentration that gives 50% inhibition. A low value points to inhibition by little substance.

The assay concerns the target T1, Avi-tagged FL MALT-1 (Homo sapiens, UniProt Q9UDY8).
T1 construct: Avi-tagged FL MALT-1 (Pharmaron, stored at −70° C.); Avi-tag; purchased Pharmaron
T1 sequence (Q9UDY8 1-824): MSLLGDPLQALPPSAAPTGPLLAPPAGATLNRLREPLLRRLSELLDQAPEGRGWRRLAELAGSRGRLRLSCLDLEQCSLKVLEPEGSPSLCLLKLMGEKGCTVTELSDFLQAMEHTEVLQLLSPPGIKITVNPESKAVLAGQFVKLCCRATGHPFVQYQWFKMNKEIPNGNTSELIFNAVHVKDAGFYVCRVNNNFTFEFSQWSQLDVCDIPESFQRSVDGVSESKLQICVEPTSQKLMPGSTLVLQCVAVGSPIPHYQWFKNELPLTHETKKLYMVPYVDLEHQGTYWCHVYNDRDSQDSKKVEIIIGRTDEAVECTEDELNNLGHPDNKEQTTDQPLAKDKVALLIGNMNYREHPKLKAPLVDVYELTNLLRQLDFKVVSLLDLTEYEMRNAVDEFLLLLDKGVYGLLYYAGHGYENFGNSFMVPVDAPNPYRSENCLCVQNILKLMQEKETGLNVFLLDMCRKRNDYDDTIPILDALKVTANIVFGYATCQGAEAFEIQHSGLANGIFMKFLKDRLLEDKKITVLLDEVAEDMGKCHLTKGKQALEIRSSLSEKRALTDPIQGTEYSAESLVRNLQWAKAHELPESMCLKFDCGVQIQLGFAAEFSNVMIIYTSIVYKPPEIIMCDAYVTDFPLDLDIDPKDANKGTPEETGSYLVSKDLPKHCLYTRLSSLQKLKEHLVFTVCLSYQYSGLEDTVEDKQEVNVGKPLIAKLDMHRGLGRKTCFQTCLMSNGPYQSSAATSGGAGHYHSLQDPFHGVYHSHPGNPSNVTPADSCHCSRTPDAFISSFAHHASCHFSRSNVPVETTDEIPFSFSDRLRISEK
Put plainly: MALT-1 Fluorogenic Peptide Cleavage Assay (MALT1 inhibition assay). The format is biochemical. The conditions noted are these: Ac-LRSR-AMC peptide substrate; 30 min pre-incubation, 90 min reaction at room temperature; fluorescence. Here is the method:
Inhibition of MALT1 activity by a small molecule was evaluated using MALT-1 Fluorogenic Peptide Cleavage Assay. The assay utilizes a quenched AMC-labelled peptide that contains the MALT-1 recognition sequence and cleavage site (LRSR). MALT-1 mediated cleavage of the peptide relieves the quenching and leads to an increase in fluorescence at excitation (342 nm) and emission (441 nm).
The following reagents were obtained commercially and used to prepare standard reagent formulations as further described below: N-2-hydroxyethylpiperazine-N-2-ethane sulfonic acid (HEPES) (1 M, pH 7.5, stored at 4° C.), sodium citrate (stored at RT), tris(2-carboxyethyl)phosphine hydrochloride (T-CEP) (500 mM, stored at −20° C.), ethylenediaminetetraacetic acid (EDTA) (500 mM, stored at RT), dimethylsulfoxide (DMSO, stored at RT), 3-[(3-cholamidopropyl)dimethylammonio]-1-propane sulphate (CHAPS) (stored at RT), dimethylsulfoxide (DMSO), DMSO (Fisher Scientific, stored at RT), Avi-tagged FL MALT-1 (Pharmaron, stored at −70° C.), Ac-LRSR-AMC Peptide (SM Biochemicals, stored at −20° C.), and ultrapure water (MILLI-Q®).
The standard reagent formulations used in this assay were prepared and stored as follows. A 1.1 M solution of sodium citrate (161.3 g, 500 mL) was prepared and stored at room temperature. A 10% (w/v) CHAPS solution (2.0 g, 20 mL) was prepared and stored at 4° C. A 500 mM HEPES solution having pH of 6.89 was prepared from 200 mL of a 1 M HEPES solution having a pH of 7.5 using concentrated hydrochloric acid and brought to a final volume of 400 mL with MILLI-Q© H2O. The substrate, 10 mM Ac-LRSR-AMC Peptide, was prepared (10 mg, 1.370 mL DMSO) and stored at −20° C.
Compounds were plated to provide a 2% DMSO final concentration using a ProxiPlate-384 Plus F Black 384-shallow well microplate. The assay-ready plates were equilibrated to room temperature. A reaction buffer (30 mL total volume) was prepared by combining HEPES (pH 6.89, 25 mM, 1.5 mL), sodium citrate (660 mM, 18.0 mL), T-CEP (1 mM, 0.06 mL), EDTA (0.1 mM, 0.06 mL), CHAPS (0.05%, 0.15 mL), DMSO (2%, 0.6 mL), and MILLI-Q® H2O (10.23 mL; 9.63 mL when backfilled to 2% DMSO) followed by thorough mixing.
MALT-1 was thawed and kept on ice. Peptide substrate was thawed on the bench under ambient conditions. A MALT-1 enzyme working stock was prepared from Avi-tagged FL MALT-1 (40 nM in a prepared reagent volume of […]) and the reaction buffer (13.0 mL). MALT1 working stock (5 μL) was added to each well of the microplate. MALT-1 was pre-incubated with compounds for 30 minutes at room temperature.
Two substrate working stocks (Km and 10×Km) were prepared. The 1×Km substrate was prepared from Ac-LRSR-AMC Peptide (50 μM in a prepared reagent volume of […]) and the reaction buffer (6.965 mL). The 10×Km substrate was prepared from Ac-LRSR-AMC Peptide ([…] in a prepared reagent volume of 196.0 μL) and the reaction buffer (6.804 mL). The reaction was initiated by the addition of substrate working stock (5 μL, 50 μM) to Km plates and the addition of substrate working stock (5 μL 280 μM) to 10×Km plates. The plates were covered and incubated on the bench at room temperature for 90 minutes.
Fluorescence intensity was determined using a CLARIOstar microplate reader (BMG LABTECH) using the optimised AMC mode. Before taking readings, a 70% gain was applied on the neutral control well. Compound data were normalised to % Inhibition and used to plot sigmoidal concentration response curves to yield various parameters including IC50.
For `CNC(=O)c1ccc(NC(=O)c2snc(-c3ccccc3)c2C2CC2)cc1Cl` [I-23, N-(3-CHLORO-4-(METHYLCARBAMOYL) PHENYL)-4-CYCLOPROPYL-3-PHENYLISOTHIAZOLE-5-CARBOXAMIDE], the IC50 was no more than 0.4 µM.

`CN(CCO)C(=O)c1ccc(NC(=O)c2snc(-c3ccccc3)c2C2CC2)cc1Cl` [I-24, N-(3-CHLORO-4-((2-HYDROXYETHYL) (METHYL)CARBAMOYL)PHENYL)-4-CYCLOPROPYL-3-PHENYLISOTHIAZOLE-5-CARBOXAMIDE] displayed an IC50 of no more than 0.4 µM. `COCCN(C)C(=O)c1ccc(NC(=O)c2snc(-c3ccccc3)c2C2CC2)cc1Cl` [I-25, N-(3-CHLORO-4-((2-METHOXYETHYL) (METHYL) CARBAMOYL)PHENYL)-4-CYCLOPROPYL-3-PHENYL-ISOTHIAZOLE-5-CARBOXAMIDE] had an IC50 of no more than 0.4 µM. For `O=C(Nc1ccnc(C(F)(F)F)c1)c1snc(-c2ccccc2)c1C1CC1` [I-26, 3-PHENYL-4-CYCLOPROPYL-N-(2-(TRIFLUOROMETHYL)PYRIDIN-4-YL)ISOTHIAZOLE-5-CARBOXAMIDE] the value was no more than 0.4 µM; for `N#Cc1cc(NC(=O)c2snc(-c3ccccn3)c2C2CC2)cnc1-n1nccn1` [I-27, N-(5-CYANO-6-(2H-1,2,3-TRIAZOL-2-YL) PYRIDIN-3-YL)-4-CYCLOPROPYL-3-(PYRIDIN-2-YL)ISOTHIAZOLE-5-CARBOXAMIDE], no more than 0.4 µM. `N#Cc1cc(NC(=O)c2snc(-c3ncccc3Cl)c2C2CC2)cnc1-n1nccn1` [I-28, 3-(3-CHLOROPYRIDIN-2-YL)-N-(5-CYANO-6-(2H-1,2,3-TRIAZOL-2-YL)PYRIDIN-3-YL)-4-CYCLOPROPYLISOTHIAZOLE-5-CARBOXAMIDE] gave an IC50 of no more than 0.4 µM.

For `CN(C)c1ncc(NC(=O)c2snc(-c3ccccc3)c2C2CC2)cc1C#N` [I-29, N-(5-CYANO-6-(DIMETHYLAMINO)PYRIDIN-3-YL)-4-CYCLOPROPYL-3-PHENYLISOTHIAZOLE-5-CARBOXAMIDE], the IC50 is no more than 0.4 µM. Under `N#Cc1cncc(NC(=O)c2snc(-c3ccccc3)c2C2CC2)c1` [I-30, N-(5-CYANOPYRIDIN-3-YL)-4-CYCLOPROPYL-3-PHENYLISOTHIAZOLE-5-CARBOXAMIDE] stands no more than 0.4 µM; under `O=C(Nc1cnc(-n2nccn2)c(Cl)c1)c1snc(-c2cnc3ccccn23)c1C(F)(F)F` [I-31], no more than 0.4 µM.

In the case of `N#Cc1cc(NC(=O)c2snc(-c3ccccc3)c2C2CC2)ccc1C(=O)N1CC(O)C1` [I-32], the IC50 was no more than 0.4 µM. Under `Cc1ncc(NC(=O)c2snc(-c3ccccc3)c2C2CC2)cc1Cl` [I-33] stands no more than 0.4 µM; under `N#Cc1cc(NC(=O)c2snc(C3CCOCC3)c2C(F)(F)F)cnc1-n1nccn1` [I-34], no more than 0.4 µM.

In turn, `O=C(Nc1cnc(-n2nccn2)c(Cl)c1)c1snc(-c2cccc3ncccc23)c1C(F)(F)F` [I-35, N-(5-CHLORO-6-(2H-1,2,3-TRIAZOL-2-YL) PYRIDIN-3-YL)-3-(QUINOLIN-5-YL)-4-(TRIFLUOROMETHYL)ISOTHIAZOLE-5-CARBOXAMIDE] gave a half-inhibitory concentration (IC50) of no more than 0.4 µM.

As to `Cn1cc(-c2nsc(C(=O)Nc3cnc(-n4nccn4)c(C#N)c3)c2C(F)(F)F)ccc1=O` [I-36, N-(5-CYANO-6-(2H-1,2,3-TRIAZOL-2-YL)PYRIDIN-3-YL)-3-(1-METHYL-6-OXO-1,6-DIHYDROPYRIDIN-3-YL)-4-(TRIFLUORO-METHYL)ISOTHIAZOLE-5-CARBOXAMIDE], the IC50 is no more than 0.4 µM.

`Cn1cc(-c2nsc(C(=O)Nc3cnc(-n4nccn4)c(C#N)c3)c2C(F)(F)F)cn1` [I-37, N-(5-CYANO-6-(2H-1,2,3-TRIAZOL-2-YL)PYRIDIN-3-YL)-3-(1-METHYL-1H-PYRAZOL-4-YL)-4-(TRIFLUORO-METHYL)ISOTHIAZOLE-5-CARBOXAMIDE] returned an IC50 of 0.4 to 1 µM. For `CC(C)c1nsc(C(=O)Nc2cnc(-n3nccn3)c(C#N)c2)c1C(F)(F)F` [I-38, N-(5-CYANO-6-(2H-1,2,3-TRIAZOL-2-YL) PYRIDIN-3-YL)-3-ISOPROPYL-4-(TRIFLUOROMETHYL)ISOTHIAZOLE-5-CARBOXAMIDE] the value was no more than 0.4 µM. Regarding `COc1c(-c2ccccc2)nsc1C(=O)Nc1cnc(-n2nccn2)c(Cl)c1` [I-39, N-(5-CHLORO-6-(2H-1,2,3-TRIAZOL-2-YL) PYRIDIN-3-YL)-4-METHOXY-3-PHENYLISOTHIAZOLE-5-CARBOXAMIDE], the IC50 was no more than 0.4 µM. Consider `COc1ncc(NC(=O)c2snc(-c3ccccc3)c2C2CC2)cc1Cl` [I-40, N-(5-CHLORO-6-METHOXYPYRIDIN-3-YL)-4-CYCLOPROPYL-3-PHENYLISOTHIAZOLE-5-CARBOXAMIDE], for which the IC50 was no more than 0.4 µM.

On to `Cc1cc(NC(=O)c2snc(-c3ccccc3)c2C2CC2)cn(C)c1=O` [I-41], for which the IC50 is greater than 2.5 µM. In turn, `O=C(Nc1cncc(Cl)c1)c1snc(-c2ccccc2)c1C1CC1` [I-42, N-(5-CHLOROPYRIDIN-3-YL)-4-CYCLOPROPYL-3-PHENYLISOTHIAZOLE-5-CARBOXAMIDE] returned an IC50 of no more than 0.4 µM. Under `O=C(Nc1cncc(F)c1)c1snc(-c2ccccc2)c1C1CC1` [I-43, 4-CYCLOPROPYL-N-(5-FLUOROPYRIDIN-3-YL)-3-PHENYLISOTHIAZOLE-5-CARBOXAMIDE] stands greater than 2.5 µM. `COc1cncc(NC(=O)c2snc(-c3ccccc3)c2C2CC2)c1` [I-44, 4-CYCLOPROPYL-N-(5-METHOXYPYRIDIN-3-YL)-3-PHENYLISOTHIAZOLE-5-CARBOXAMIDE]: the IC50 is greater than 2.5 µM.

The compound `Cc1cncc(NC(=O)c2snc(-c3ccccc3)c2C2CC2)c1` [I-45, 4-CYCLOPROPYL-N-(5-METHYLPYRIDIN-3-YL)-3-PHENYLISOTHIAZOLE-5-CARBOXAMIDE] showed an IC50 of 1 to 2.5 µM. For `CN(C)c1ccc(NC(=O)c2snc(-c3ccccc3)c2C2CC2)cn1` [I-46, 4-CYCLOPROPYL-N-(6-(DIMETHYLAMINO) PYRIDIN-3-YL)-3-PHENYLISOTHIAZOLE-5-CARBOXAMIDE] the value was greater than 2.5 µM; for `Cn1ncc2cc(NC(=O)c3snc(-c4ccccc4)c3C3CC3)cnc21` [I-47, 4-CYCLOPROPYL-N-(1-METHYL-1H-PYRAZOLO [3,4-B]PYRIDIN-5-YL)-3-PHENYLISOTHIAZOLE-5-CARBOXAMIDE], 0.4 to 1 µM; for `Cc1cc(NC(=O)c2snc(-c3ccccc3)c2C2CC2)cnc1-n1ccnn1` [I-48, 4-CYCLOPROPYL-N-(5-METHYL-6-(1H-1,2,3-TRIAZOL-1-YL)PYRIDIN-3-YL)-3-PHENYLISOTHIAZOLE-5-CARBOXAMIDE], no more than 0.4 µM.
